In article PMC4694998, “Suppression of β-catenin/TCF transcriptional activity and colon tumor cell growth by dual inhibition of PDE5 and 10” (Oncotarget, 2015) one finds IC50, COX-1 inhibitory activity and COX-2 inhibitory activity data, which are given here for 1 compound.

By IC50 is commonly meant the concentration at which inhibition is half-maximal.

The target of assay [1] is T1, purified ovine COX-1 (Ovis aries, UniProt P05979).
T1 construct: purchased Cayman
T1 sequence (P05979 25-600): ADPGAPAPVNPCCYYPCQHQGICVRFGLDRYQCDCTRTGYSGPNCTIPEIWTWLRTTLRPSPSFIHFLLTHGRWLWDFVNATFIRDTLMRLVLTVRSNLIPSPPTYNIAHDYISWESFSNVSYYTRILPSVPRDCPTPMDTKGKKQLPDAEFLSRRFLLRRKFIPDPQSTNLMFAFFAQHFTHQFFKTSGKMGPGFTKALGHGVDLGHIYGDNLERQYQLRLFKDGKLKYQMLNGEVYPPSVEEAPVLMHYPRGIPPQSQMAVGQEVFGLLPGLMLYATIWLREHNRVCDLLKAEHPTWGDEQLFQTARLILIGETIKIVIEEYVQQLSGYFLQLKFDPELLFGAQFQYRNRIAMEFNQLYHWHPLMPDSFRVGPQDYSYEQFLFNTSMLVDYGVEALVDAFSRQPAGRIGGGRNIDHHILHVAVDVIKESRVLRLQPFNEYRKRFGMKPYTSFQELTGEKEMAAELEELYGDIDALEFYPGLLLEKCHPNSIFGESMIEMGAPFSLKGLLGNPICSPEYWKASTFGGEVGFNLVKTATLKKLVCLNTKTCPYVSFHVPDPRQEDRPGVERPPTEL
The assay is described as follows: COX-1 colorimetric assay. Format: biochemical. The method, then:
(§1) COX-1 and COX-2 activities were measured using purified ovine COX-1 and COX-2 with colorimetric assay kits obtained from Cayman as previously reported. The activities of COX-1 and COX-2 were measured after the addition of arachidonic acid and incubation at 25°C for 5 min by absorbance at 590 nm as specified by the manufacturer.
(§2) The IC50 values were determined as described previously. All experiments were repeated a minimum of three times to determine the reproducibility of the results. All error bars represent standard error of the mean (SEM). Statistical analysis of differences between samples was performed using the Student’s t-test. A P value of < 0.05 was considered statistically significant.

In assay [2] the target is T2, purified ovine COX-2 (Ovis aries, UniProt P79208).
T2 construct: purchased Cayman
T2 sequence (P79208 17-603): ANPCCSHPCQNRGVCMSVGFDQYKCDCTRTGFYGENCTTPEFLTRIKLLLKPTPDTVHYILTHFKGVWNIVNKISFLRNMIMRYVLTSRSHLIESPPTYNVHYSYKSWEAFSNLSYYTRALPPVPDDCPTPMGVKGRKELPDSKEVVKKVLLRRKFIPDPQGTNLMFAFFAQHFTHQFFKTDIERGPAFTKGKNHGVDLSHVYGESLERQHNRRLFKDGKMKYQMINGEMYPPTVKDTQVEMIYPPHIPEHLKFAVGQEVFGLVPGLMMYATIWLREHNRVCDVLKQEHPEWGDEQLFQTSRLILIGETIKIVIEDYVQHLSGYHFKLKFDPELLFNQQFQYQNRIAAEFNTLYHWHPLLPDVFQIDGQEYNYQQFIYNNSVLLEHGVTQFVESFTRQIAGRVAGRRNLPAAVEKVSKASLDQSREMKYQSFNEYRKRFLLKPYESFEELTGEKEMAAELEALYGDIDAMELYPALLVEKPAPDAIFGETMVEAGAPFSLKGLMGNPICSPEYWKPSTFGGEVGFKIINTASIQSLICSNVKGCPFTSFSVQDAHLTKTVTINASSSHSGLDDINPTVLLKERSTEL
The assay is described as follows: COX-2 colorimetric assay. Format: biochemical. The method, then: as §1, §2

In assay [3] the target is T3, PDE5 (Homo sapiens, UniProt O76074).
T3 construct: purchased BPS Biosciences
The assay is described as follows: IMAP fluorescence polarization PDE assay, recombinant PDE5. Format: biochemical. The note with it: recombinant enzyme. As to the method: (§3) Recombinant PDE isozymes were purchased from BPS Biosciences. The PDE10 antibody was purchased from GeneTex, while the PDE5 antibody was purchased from Cell Signaling Technologies. Non-targeting control siRNA and PDE10 specific siRNAs were purchased from Qiagen. RNAiMAX transfection reagent was purchased from Invitrogen. DMSO was used as vehicle for all compounds unless otherwise noted. All other reagents were purchased from Sigma.
(§4) PDE activity was measured using the IMAP fluorescence polarization (FP) PDE assay (Molecular Devices) in which binding of hydrolyzed fluorescent cyclic nucleotide substrate to the IMAP reagent increases FP as described previously.
as §2
(Fluorescence polarisation rises when a labelled molecule tumbles more slowly, as on binding a larger partner.)

Assay [4] addresses T4, PDE10 (Homo sapiens, UniProt Q9Y233).
T4 construct: purchased BPS Biosciences
The assay is described as follows: IMAP fluorescence polarization PDE assay, recombinant PDE10. It is filed as biochemical. As to conditions: recombinant enzyme. The method, then: as §3, §4, §2

The subject of assay [5] is HCT116 colon tumor cells. The assay is described as follows: Growth assay (Cell Titer Glo), HCT116. Format: cell-based, human. The note with it: Homo sapiens, HCT-116; 72 hours of treatment; read-out: HCT116 growth IC50. The method, then:
All cell lines were expanded upon delivery, and numerous aliquots of low passage cells were preserved in liquid N2. Cells were passaged no longer than 2 months. Tumor cell lines obtained from ATCC were characterized by STR profiling as performed by ATCC. The NCM460 line was characterized by INCELL as described previously (e.g. tumorigenicity testing). No additional re-authentication of the cell lines was performed except for experimental reasons (e.g. confirmation of cell doubling time, morphology, sensitivity to SS, PDE5/10 expression levels, etc). Cells were plated in 96-well microtiter plates at a density of 5,000 cells per well. For drug treatment, cells were treated with compound or vehicle, and incubated at 37°C for 72 hours. […] For siRNA assays, cells were transfected with siRNA under the same condition described above. The effect of treatment on cell growth was measured using the Cell Titer Glo Assay as specified by the manufacturer (Promega). The IC50 values were determined as described previously. All experiments were repeated a minimum of three times to determine the reproducibility of the results. All error bars represent standard error of the mean (SEM). Statistical analysis of differences between samples was performed using the Student’s t-test.

T4 sequence (Q9Y233 267-1055): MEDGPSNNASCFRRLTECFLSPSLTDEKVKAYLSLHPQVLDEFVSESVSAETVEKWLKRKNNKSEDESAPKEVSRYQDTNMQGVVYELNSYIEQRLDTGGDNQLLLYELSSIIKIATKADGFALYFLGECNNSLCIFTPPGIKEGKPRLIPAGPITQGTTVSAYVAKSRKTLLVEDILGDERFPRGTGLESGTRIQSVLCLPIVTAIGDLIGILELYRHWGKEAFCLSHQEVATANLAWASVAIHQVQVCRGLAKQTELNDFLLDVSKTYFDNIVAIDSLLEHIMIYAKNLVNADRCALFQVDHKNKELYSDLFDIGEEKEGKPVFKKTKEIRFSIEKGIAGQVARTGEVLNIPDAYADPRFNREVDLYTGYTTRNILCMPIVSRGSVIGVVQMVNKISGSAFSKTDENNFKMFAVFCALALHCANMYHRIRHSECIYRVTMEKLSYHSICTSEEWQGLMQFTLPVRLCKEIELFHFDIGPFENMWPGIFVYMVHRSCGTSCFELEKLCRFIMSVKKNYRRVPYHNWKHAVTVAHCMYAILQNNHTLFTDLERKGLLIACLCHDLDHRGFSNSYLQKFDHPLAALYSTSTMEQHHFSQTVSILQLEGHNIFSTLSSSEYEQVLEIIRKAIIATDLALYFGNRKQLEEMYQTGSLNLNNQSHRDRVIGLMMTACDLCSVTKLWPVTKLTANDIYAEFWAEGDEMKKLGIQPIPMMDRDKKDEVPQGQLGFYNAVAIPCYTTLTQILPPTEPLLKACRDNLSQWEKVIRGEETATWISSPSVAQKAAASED

Regarding `COc1ccc2c(c1)C(CC(=O)NCc1ccco1)=C(C)/C2=C/c1cc(OC)c(OC)c(OC)c1` [ADT-094, (Z)-N-(furan-2-ylmethyl)-2-(5-methoxy-2-methyl-1-(3,4,5-trimethoxybenzylidene)-1H-inden-3-yl) acetamide], the IC50 in assay [1] (Figure 3A) was 81000 nM; in assay [2] (Figure 3A), 145000 nM; in assay [3], 2400 nM; in assay [4], 500 nM; in assay [5] it was 100 nM. Further, in assay [1] (in words), the COX-1 inhibitory activity entry was “essentially lacks”. The COX-2 inhibitory activity entry in assay [2] (in words) was “essentially lacks”.
